Broadly, the IC90 is the concentration needed for an effect of 90%.

Counter-ions that a name gives are not always drawn.

In the first experiment the test system is Acinetobacter baumannii ATCC17961. In words: Antimicrobial susceptibility testing: 90% growth inhibitory concentration (IC90) determination. In kind it is cell-based. The note with it: 90% growth inhibitory concentration against Acinetobacter baumannii ATCC17961, Iso-Sensitest broth, OD 600 nm over 16 h; read-out: ATCC 17961 IC90. The method in brief:
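OD600 monitored each minute over 16 h at 35±2° C for bacteria (~5×10^5 CFU/mL final) in Iso-Sensitest medium with 10-point twofold compound series (e.g. 10-0.0195 μM final). Concentration giving 90% growth inhibition in log phase reported as IC90.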
For the compound `Cn1c(-c2cn(-c3ccc(NCCN)cn3)nc2C(F)(F)F)cnc1C(=O)Nc1ccc(C(=O)N2CCN(C(=O)[C@H]3CC[N@+](CC(=O)O)(CC4CNC4)CC3)CC2)c(Cl)c1` [Example 10, cis-2-[4-[4-[4-[[5-[1-[5-(2-Aminoethylamino)-2-pyridyl]-3-(trifluoromethyl)pyrazol-4-yl]-1-methyl-imidazole-2-carbonyl]amino]-2-chloro-benzoyl]piperazine-1-carbonyl]-1-(azetidin-3-ylmethyl)piperidin-1-ium-1-yl]acetic Acid.1:1 2,2,2-trifluoroacetic Acid.1:1 2,2,2-trifluoroacetate], the IC90 was 170 nM.

Staying with this experiment, now noted: Acinetobacter baumannii, ATCC17961, 16 h, 90% growth inhibitory concentration against Acinetobacter baumannii ATCC17961, Iso-Sensitest broth, OD 600 nm over 16 h; read-out: ATCC 17961 IC90.
For `Cn1c(-c2cn(-c3ccc(O)cc3F)nc2C(F)(F)F)cnc1C(=O)Nc1ccc(C(=O)N2CCN(C(=O)[C@H]3CC[N@+](CC(=O)O)(CC4CNC4)CC3)CC2)c(F)c1` [Example 136, cis-2-[1-(azetidin-3-ylmethyl)-4-[4-[2-fluoro-4-[[5-[1-(2-fluoro-4-hydroxy-phenyl)-3-(trifluoromethyl)pyrazol-4-yl]-1-methyl-imidazole-2-carbonyl]amino]benzoyl]piperazine-1-carbonyl]piperidin-1-ium-1-yl]acetic acid;formate], the IC90 amounted to 173 nM.

Turning to `Cn1c(-c2cn(-c3cc4[nH]c(CCO)cc4cn3)nc2C(F)(F)F)cnc1C(=O)Nc1ccc(C(=O)N2CCN(C(=O)[C@H]3CC[N@+](CC(=O)O)(CC4CNC4)CC3)CC2)c(Cl)c1` [Example 154, cis-2-[1-(azetidin-3-ylmethyl)-4-[4-[2-chloro-4-[[5-[1-[2-(2-hydroxyethyl)-1H-pyrrolo[3,2-c]pyridin-6-yl]-3-(trifluoromethyl)pyrazol-4-yl]-1-methyl-imidazole-2-carbonyl]amino]benzoyl]piperazine-1-carbonyl]piperidin-1-ium-1-yl]acetic acid;formate], the IC90 was 172 nM.

Take `Cn1c(-c2cn(-c3cc4cc[nH]c4cn3)nc2C(F)(F)F)cnc1C(=O)Nc1ccc(C(=O)N2CCN(C(=O)[C@H]3CC[N@+](CC(=O)O)(CC4CNC4)CC3)CC2)c(Cl)c1` [Example 200, cis-2-[1-(azetidin-3-ylmethyl)-4-[4-[2-chloro-4-[[1-methyl-5-[1-(1H-pyrrolo[2,3-c]pyridin-5-yl)-3-(trifluoromethyl)pyrazol-4-yl]imidazole-2-carbonyl]amino]benzoyl]piperazine-1-carbonyl]piperidin-1-ium-1-yl]acetic acid. 1:1 2,2,2-trifluoroacetate]: the 90% effect concentration (IC90) stood at 400 nM.

As for `Cn1c(-c2cn(-c3ccc(N)cn3)nc2C(F)(F)F)cnc1C(=O)Nc1ccc(C(=O)N2CCN(C(=O)[C@H](N)CC(=O)O)CC2)c(Cl)c1` [Example 85, (3R)-3-amino-4-[4-[4-[[5-[1-(5-amino-2-pyridyl)-3-(trifluoromethyl)pyrazol-4-yl]-1-methyl-imidazole-2-carbonyl]amino]-2-chloro-benzoyl]piperazino]-4-keto-butyric acid. 1:1 2,2,2-trifluoroacetic acid], the 90% effect concentration (IC90) is 1360 nM.

In the case of `C[C@H](N)CNc1ccc(-n2cc(-c3cnc(C(=O)Nc4ccc(C(=O)N5CCN(C(=O)C6CC[N+](CC(=O)O)(CC7CNC7)CC6)CC5)c(Cl)c4)n3C)c(C(F)(F)F)n2)nc1` (stereo partly drawn) [Example 19, 2-[4-[4-[4-[[5-[1-[5-[[(2S)-2-Aminopropyl]amino]-2-pyridyl]-3-(trifluoromethyl)pyrazol-4-yl]-1-methyl-imidazole-2-carbonyl]amino]-2-chloro-benzoyl]piperazine-1-carbonyl]-1-(azetidin-3-ylmethyl)piperidin-1-ium-1-yl]acetic Acid.1:1 formic Acid.1:1 formate], the 90% effect concentration (IC90) was 260 nM.

Turning to `Cn1c(-c2cn(-c3cccc(N)n3)nc2C(F)(F)F)cnc1C(=O)Nc1ccc(C(=O)N2CCN(C(=O)C3CC[N+](CC(=O)O)(CC4CNC4)CC3)CC2)c(Cl)c1` (stereo not shown) [Example 56, 2-[4-[4-[4-[[5-[1-(6-amino-2-pyridyl)-3-(trifluoromethyl)pyrazol-4-yl]-1-methyl-imidazole-2-carbonyl]amino]-2-chloro-benzoyl]piperazine-1-carbonyl]-1-(azetidin-3-ylmethyl)piperidin-1-ium-1-yl]acetic acid. 1:1 2,2,2-trifluoroacetate], the concentration for an effect of 90% (IC90) came to 560 nM.

Turning to `CN1CCN(c2ccc(-n3cc(-c4cnc(C(=O)Nc5ccc(C(=O)N6CCN(C(=O)C7CC[N+](CC(=O)O)(CC8CNC8)CC7)CC6)c(Cl)c5)n4C)c(C(F)(F)F)n3)nc2)CC1` (stereo not shown) [Example 53, 2-[1-(azetidin-3-ylmethyl)-4-[4-[2-chloro-4-[[1-methyl-5-[1-[5-(4-methylpiperazino)-2-pyridyl]-3-(trifluoromethyl)pyrazol-4-yl]imidazole-2-carbonyl]amino]benzoyl]piperazine-1-carbonyl]piperidin-1-ium-1-yl]acetic acid. 1:1 formate], the IC90 was found to be 550 nM.

Take `COc1ccc(-n2cc(-c3cnc(C(=O)Nc4ccc(C(=O)N5CCN(C(=O)C6CC[N+](CC(=O)O)(CC7CNC7)CC6)CC5)c(Cl)c4)n3C)c(C(F)(F)F)n2)nc1` (stereo not shown) [Example 22, 2-[1-(azetidin-3-ylmethyl)-4-[4-[2-chloro-4-[[5-[1-(5-methoxy-2-pyridyl)-3-(trifluoromethyl)pyrazol-4-yl]-1-methyl-imidazole-2-carbonyl]amino]benzoyl]piperazine-1-carbonyl]piperidin-1-ium-1-yl]acetic acid. 1:1 formate]: the 90% effect concentration (IC90) was 330 nM.

Turning to `Cn1c(-c2cn(-c3ccc(N)cn3)nc2C(F)(F)F)cnc1C(=O)Nc1ccc(C(=O)N2CCC(C(=O)NCCCc3cc[n+](CC(=O)O)c(CCCN)c3)CC2)c(Cl)c1` [Example 96, 2-[2-(3-aminopropyl)-4-[3-[[1-[4-[[5-[1-(5-amino-2-pyridyl)-3-(trifluoromethyl)pyrazol-4-yl]-1-methyl-imidazole-2-carbonyl]amino]-2-chloro-benzoyl]piperidine-4-carbonyl]amino]propyl]pyridin-1-ium-1-yl]acetic acid. 1:1 2,2,2-trifluoroacetic acid. 1:1 2,2,2-trifluoroacetate], the 90% effect concentration (IC90) was determined as 1820 nM.

Regarding `COCCNc1ccc(-n2cc(-c3cnc(C(=O)Nc4ccc(C(=O)N5CCN(C(=O)[C@H]6CC[N@+](CC(=O)O)(CC7CNC7)CC6)CC5)c(F)c4)n3C)c(C(F)(F)F)n2)c(F)c1` [Example 124, cis-2-[1-(azetidin-3-ylmethyl)-4-[4-[2-fluoro-4-[[5-[1-[2-fluoro-4-(2-methoxyethylamino)phenyl]-3-(trifluoromethyl)pyrazol-4-yl]-1-methyl-imidazole-2-carbonyl]amino]benzoyl]piperazine-1-carbonyl]piperidin-1-ium-1-yl]acetic acid; formate], the IC90 was found to be 103 nM.

On to `Cn1c(-c2cn(-c3ccc(O)cc3F)nc2C(F)(F)F)cnc1C(=O)Nc1ccc(C(=O)N2CCN(C(=O)[C@H]3CC[N@@+](CCCN)(CC(=O)O)CC3)CC2)c(F)c1` [Example 131, cis-2-[1-(3-aminopropyl)-4-[4-[2-fluoro-4-[[5-[1-(2-fluoro-4-hydroxy-phenyl)-3-(trifluoromethyl)pyrazol-4-yl]-1-methyl-imidazole-2-carbonyl]amino]benzoyl]piperazine-1-carbonyl]piperidin-1-ium-1-yl]acetic acid;formate], for which the IC90 is 103 nM.

For `Cn1c(-c2cn(-c3ccc(N)cn3)nc2C(F)(F)F)cnc1C(=O)Nc1ccc(C(=O)N2C3CCC2CN(C(=O)C2CC[N+](CC(=O)O)(CC4CNC4)CC2)C3)c(Cl)c1` (stereo not shown) [Example 89, 2-[4-[8-[4-[[5-[1-(5-amino-2-pyridyl)-3-(trifluoromethyl)pyrazol-4-yl]-1-methyl-imidazole-2-carbonyl]amino]-2-chloro-benzoyl]-3,8-diazabicyclo[3.2.1]octane-3-carbonyl]-1-(azetidin-3-ylmethyl)piperidin-1-ium-1-yl]acetic acid. 1:1 formate], the IC90 was 1490 nM.

Regarding `Cn1c(-c2cn(-c3ccc(N)cn3)nc2C(F)(F)F)cnc1C(=O)Nc1ccc(C(=O)N2CCN(C(=O)NCCCc3cc[n+](CC(=O)O)c(CCCN)c3)CC2)c(Cl)c1` [Example 70, 2-[2-(3-Aminopropyl)-4-[3-[[4-[4-[[5-[1-(5-amino-2-pyridyl)-3-(trifluoromethyl)pyrazol-4-yl]-1-methyl-imidazole-2-carbonyl]amino]-2-chloro-benzoyl]piperazine-1-carbonyl]amino]propyl]pyridin-1-ium-1-yl]acetic Acid.1:1 2,2,2-trifluoroacetic Acid.1:1 2,2,2-trifluoroacetate], the 90% effect concentration (IC90) amounted to 850 nM.

For the compound `CN(C)C(=O)c1c[nH]c2cc(-n3cc(-c4cnc(C(=O)Nc5ccc(C(=O)N6CCN(C(=O)[C@H]7CC[N@+](CC(=O)O)(CC8CNC8)CC7)CC6)c(Cl)c5)n4C)c(C(F)(F)F)n3)ncc12` [Example 172, cis-2-[1-(azetidin-3-ylmethyl)-4-[4-[2-chloro-4-[[5-[1-[3-(dimethylcarbamoyl)-1H-pyrrolo[3,2-c]pyridin-6-yl]-3-(trifluoromethyl)pyrazol-4-yl]-1-methyl-imidazole-2-carbonyl]amino]benzoyl]piperazine-1-carbonyl]piperidin-1-ium-1-yl]acetic acid. 1:1 2,2,2-trifluoroacetate], the IC90 was 194 nM.

Turning to `Cn1c(-c2cn(-c3cc4[nH]c(CN)cc4cn3)nc2C(F)(F)F)cnc1C(=O)Nc1ccc(C(=O)N2CCN(C(=O)[C@H]3CC[N@+](CC(=O)O)(CC4CNC4)CC3)CC2)c(Cl)c1` [Example 189, cis-2-[4-[4-[4-[[5-[1-[2-(aminomethyl)-1H-pyrrolo[3,2-c]pyridin-6-yl]-3-(trifluoromethyl)pyrazol-4-yl]-1-methyl-imidazole-2-carbonyl]amino]-2-chloro-benzoyl]piperazine-1-carbonyl]-1-(azetidin-3-ylmethyl)piperidin-1-ium-1-yl]acetic acid;formic acid;formate], the concentration for an effect of 90% (IC90) stood at 53.2 nM.
